The test system of one series is DNA damage. Briefly: FACTORIAL assay: weak / strong DNA damage TFAP clusters. In kind it is cell-based, human. The conditions noted are these: HepG2, 24 h, all tested concentrations.
In series [1] the test system is mitochondria membrane potential. The conditions noted are these: HepG2, 1-hour incubation at concentrations below 60 μM; cited from earlier work.
Series [2] concerns mitochondrial electron transport chain (mETC). Put plainly: FACTORIAL assay: similarity of TFAP to the consensus (invariant) mETC TFAP. It is filed as cell-based, human. Particulars: HepG2, 24 h incubation; each value at the concentration [uM].
The subject of a further series is HG19/HepG2 cells. It is filed as cell-based. The method, then:
Cell viability was evaluated by the XTT (2,3-Bis-(2-Methoxy-4-Nitro-5-Sulfophenyl)-2H-Tetrazolium-5-Carboxanilide) assay (ATCC) in HG19/HepG2 cells. As a baseline, cells are used that were treated with corresponding dilutions of the vehicle (DMSO). The viability data are an average of two replicates. The viability threshold was set at 80% viability.

A further series relates to Akt kinase. Put plainly: FACTORIAL assay: similarity of TFAP to the invariant signature of Akt inhibitors. The conditions noted are these: for retrieved by querying the TFAP database with the invariant signature for AKT inhibitors: database of over 30,000 signatures. It is filed as cell-based, human.
Another series has as its system CDK. It is filed as cell-based, human. Particulars: HepG2, 24 h.
The subject of the next series is HDAC. Briefly: FACTORIAL assay: similarity of TFAP to the consensus HDAC inhibitor TFAP. In kind it is cell-based, human. Particulars: for retrieved by querying the Attagene dataset with the HDAC TFAP: HepG2, ToxCast TFAP dataset.
Series [3] relates to HepG2 cells. Briefly: FACTORIAL assay: query of TFAPs against reference compound signatures of the Attagene TFAP database. In kind it is cell-based, human. The conditions noted are these: HepG2, 24 h.
Series [4] deals with HepG2 cells. Put plainly: FACTORIAL assay: transition of the TFAP signature of glitazones with concentration. It is filed as cell-based, human. Particulars: HepG2, 24-hour treatment.
For series [5] the following is noted: in humans; cited from earlier work.
Series [6] relates to ubiquitin (Ub)/proteasome pathway (UPP). Put plainly: FACTORIAL assay: similarity of TFAP to the consensus UPP TFAP. It is filed as cell-based, human.

Like-named read-outs stand apart in the source and are kept apart here. Marks after values point to notes of the source that are not given here.

As for `O=c1[nH]cc(F)c(=O)[nH]1` [5-fluorouracil], the “DNA damage TFAP elicited (weak or strong damage cluster)” value (shortened to “DNA damage TFAP elicited”) with DNA damage is listed as “only the weak damage TFAP”.
For `N.N.[Cl][Pt][Cl]` [Cisplatin, reference compound], the “MMP assay hitCall” value in series [1] was 0*. In addition, the “Pearson correlation with the mETC TFAP, r” value in series [2] turned out to be 0.824. Further, the “cell numbers at the end of incubation” value in the series with HG19/HepG2 cells is “significantly reduced cell numbers”.
Regarding `C[S+](C)[O-]` [DMSO], the “retrieved by querying the TFAP database with the invariant signature for AKT inhibitors” value (from here on “retrieved … for AKT inhibitors”) in the series with Akt kinase was “retrieved”.
Consider `CCc1cnn2c(NCc3ccc[n+]([O-])c3)cc(N3CCCC[C@H]3CCO)nc12` [Dinaciclib, reference compound], for which the “similarity r to the invariant signature for CDK inhibitors” value in the series on CDK (over three logs of concentrations) is greater than 0.85.
Regarding `CC(C)NC[C@@H](C(=O)N1CCN(c2ncnc3c2[C@H](C)C[C@H]3O)CC1)c1ccc(Cl)cc1` [GDC-0068, Ipatasertib, reference compound], in the series on Akt kinase, the “similarity r to the invariant signature of AKT inhibitors” value is on record as greater than 0.80.
As for `Cn1nccc1Nc1nccc(-c2ccn([C@H](CO)c3ccc(Cl)c(F)c3)c(=O)c2)n1` [GDC-0994], the “signature match at higher concentrations (HDAC inhibitors)” value in the series on HDAC (HepG2, 24 h, above 2.2 uM) is “matched the invariant signature of HDAC inhibitors”.
With `CCN(CC)C(=O)c1ccc(Nc2nc(OCC3CCCCC3)c3[nH]cnc3n2)cc1` [NU6140, reference compound], the “concentration with signature similar to the invariant signature for CDK inhibitors” value in the series on CDK turned out to be 6.7 µM. Moreover, in the series on HepG2 cells [3] (at 20 uM), the “similarity r to the signature for a cadmium salt” value came to 0.71.
Consider `Cc1c(C)c2c(c(C)c1O)CCC(C)(COc1ccc(CC3SC(=O)NC3=O)cc1)O2` (stereo not drawn) [Troglitazone], for which, in the series on HepG2 cells [4], the “concentration of transformation into tertiary signature” value was found to be 60 µM and the “concentration of transformation of primary TFAP into secondary TFAP (threshold for off-target effects)” value amounted to 20 µM. Also, the maximum plasma concentration in series [5] is 6.4 µM. Moreover, the “similarity r with the TFAP for hydrogen peroxide” value in the series with HepG2 cells [3] (at 60 uM) is greater than 0.8. In addition, the cell death entry in the series with HG19/HepG2 cells is reported as “caused cell death”.
Regarding `CN(C)c1ccc(C(=N)c2ccc(N(C)C)cc2)cc1` [auramine, auramine O], the “DNA damage TFAP elicited” value in the series on DNA damage is “only the strong damage TFAP”.
As to `[Cl][Cd][Cl]` [cadmium chloride], the “retrieved by querying the Attagene dataset with the invariant UPP signature” value in series [6] was “retrieved”.
Take `CCO` [ethanol]: the “retrieved … for AKT inhibitors” value with Akt kinase is given as “retrieved”.
As for `O=c1[nH]c(=O)n([C@H]2C[C@H](O)[C@@H](CO)O2)cc1F` [floxuridine], the “DNA damage TFAP elicited” value in the series with DNA damage is reported as “only the weak damage TFAP”.
`CC(C)C(=O)O` [isobutyric acid]: the “retrieved by querying the Attagene dataset with the HDAC TFAP” value with HDAC is reported as “retrieved”.
For the compound `Fc1ccc([C@@H]2CCNC[C@H]2COc2ccc3c(c2)OCO3)cc1` [paroxetine, reference compound], the “retrieved … for AKT inhibitors” value in the series on Akt kinase is reported as “retrieved”.
For the compound `CCc1ccc(CCOc2ccc(CC3SC(=O)NC3=O)cc2)nc1` (stereo not drawn) [pioglitazone], the “concentration of transformation of primary TFAP into secondary TFAP (threshold for off-target effects)” value with HepG2 cells [4] turned out to be 180 µM.
`CC(/C=C/C(=O)NO)=C\[C@@H](C)C(=O)c1ccc(N(C)C)cc1` [trychostatin]: the “retrieved by querying the Attagene dataset with the HDAC TFAP” value in the series on HDAC was “retrieved”.
For the compound triphenyltin, in [6] (HepG2, ToxCast TFAP dataset), the “retrieved by querying the Attagene dataset with the invariant UPP signature” value is “retrieved”.

Source of the values: patent US20210181182A1, “METHOD FOR IDENTIFICATION OF PERTURBAGENS OF PARTICULAR BIOLOGICAL PROCESSES AND CELL SYSTEMS WITHIN LIVING CELLS” (priority 2018, published 2021).
